What was measured:
Assay type in all cases: in vivo
[1] = tested on: barnyardgrass (Echinochloa crus-galli); assay: Test A postemergence; conditions: Echinochloa crus-galli, post-emergence, 240 h
In short: (§1)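 Greenhouse, ~10 d after spray; visual injury vs untreated controls, 0 = no effect, 100 = complete control. Preemergence: directed soil spray over planted seeds. Postemergence: plants 2–10 cm, 1–2 leaf stage. Loam/sand blend. Compound in non-phytotoxic solvent with surfactant.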

[2] = tested on: Galium (catchweed bedstraw, Galium aparine); assay: Test A postemergence; conditions: Galium, post-emergence, 240 h
In short: as §1

Kochia (Kochia scoparia) [3] = assay: Test A postemergence; conditions: Bassia scoparia, post-emergence, 240 h
In short: as §1

[4] = tested on: pigweed (Amaranthus retroflexus); assay: Test A postemergence; conditions: Amaranthus retroflexus, post-emergence, 240 h, 125 g ai/ha, postemergence, visual injury vs untreated controls after approx. 10 d; 0 = no effect, 100 = complete control; read-out: Pigweed plant response rating (0 to 100 scale)
In short: as §1

[5] = tested on: blackgrass (Alopecurus myosuroides); assay: Test A postemergence; conditions: Alopecurus myosuroides, post-emergence, 240 h
In short: as §1

[6] = tested on: ragweed (common ragweed, Ambrosia elatior); assay: Test A postemergence; conditions: Ambrosia artemisiifolia, post-emergence, 240 h, 125 g ai/ha, postemergence, visual injury vs untreated controls after approx. 10 d; 0 = no effect, 100 = complete control; read-out: Ragweed plant response rating (0 to 100 scale)
In short: as §1

[7] = tested on: wheat (Triticum aestivum); assay: Test A postemergence; conditions: Triticum aestivum, post-emergence, 240 h, 125 g ai/ha, postemergence, visual injury vs untreated controls after approx. 10 d; 0 = no effect, 100 = complete control; read-out: Wheat plant response rating (0 to 100 scale)
In short: as §1

corn (Zea mays) = assay: Test A postemergence; conditions: Zea mays, post-emergence, 240 h
In short: as §1

[8] = tested on: giant foxtail (Setaria faberii); assay: Test A postemergence; conditions: Setaria faberi, post-emergence, 240 h
In short: as §1

[9] = tested on: ryegrass, Italian (Italian ryegrass, Lolium multiflorum); assay: Test A postemergence; conditions: Lolium multiflorum, post-emergence, 240 h, 125 g ai/ha, postemergence, visual injury vs untreated controls after approx. 10 d; 0 = no effect, 100 = complete control; read-out: Ryegrass, Italian plant response rating (0 to 100 scale)
In short: as §1

[10] = tested on: barnyardgrass (Echinochloa crus-galli); assay: Test B flooded paddy test; conditions: Echinochloa crus-galli, 250 g ai/ha, Flood; 0 to 100 scale where 0 is no effect and 100 is complete control; read-out: Barnyardgrass plant response rating
In short: (§2)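 Evaluation by eye, against controls, occurred 13–15 d post-treatment in a greenhouse, using a 0 (no effect) to 100 (complete control) scale. Application was into the paddy water, 3 cm deep over the soil, on 2-leaf plants.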

[11] = tested on: ducksalad (Heteranthera limosa); assay: Test B flooded paddy test; conditions: Heteranthera limosa, 250 g ai/ha, Flood; 0 to 100 scale where 0 is no effect and 100 is complete control; read-out: Ducksalad plant response rating
In short: as §2

rice (Oryra sativa) = assay: Test B flooded paddy test; conditions: Oryza sativa, 250 g ai/ha, Flood; 0 to 100 scale where 0 is no effect and 100 is complete control; read-out: Rice plant response rating
In short: as §2

[12] = tested on: sedge, umbrella (small-flower umbrella sedge, Cyperus difformis); assay: Test B flooded paddy test; conditions: Cyperus difformis, 250 g ai/ha, Flood; 0 to 100 scale where 0 is no effect and 100 is complete control; read-out: Sedge, Umbrella plant response rating
In short: as §2

[13] = tested on: barnyardgrass (Echinochloa crus-galli); assay: Test A preemergence; conditions: Echinochloa crus-galli, pre-emergence, 240 h, 0 to 100 scale where 0 is no effect and 100 is complete control, read-out: Barnyardgrass plant response rating
In short: as §1

Kochia (Kochia scoparia) [14] = assay: Test A preemergence; conditions: Bassia scoparia, pre-emergence, 240 h, 0 to 100 scale where 0 is no effect and 100 is complete control, read-out: Kochia plant response rating
In short: as §1

[15] = tested on: pigweed (Amaranthus retroflexus); assay: Test A preemergence; conditions: Amaranthus retroflexus, pre-emergence, 240 h, 0 to 100 scale where 0 is no effect and 100 is complete control, read-out: Pigweed plant response rating
[16] = tested on: ragweed (common ragweed, Ambrosia elatior); assay: Test A preemergence; conditions: Ambrosia artemisiifolia, pre-emergence, 240 h, 0 to 100 scale where 0 is no effect and 100 is complete control, read-out: Ragweed plant response rating
In short: as §1

[17] = tested on: giant foxtail (Setaria faberii); assay: Test A preemergence; conditions: Setaria faberi, pre-emergence, 240 h, 0 to 100 scale where 0 is no effect and 100 is complete control, read-out: Foxtail, Giant plant response rating
In short: as §1

[18] = tested on: ryegrass, Italian (Italian ryegrass, Lolium multiflorum); assay: Test A preemergence; conditions: Lolium multiflorum, pre-emergence, 240 h, 0 to 100 scale where 0 is no effect and 100 is complete control, read-out: Ryegrass, Italian plant response rating
In short: as §1

[19] = 125 g ai/ha, preemergence, approx. 10 d

CN1C[C@H](c2ccc(C(F)F)cc2)[C@@H](C(=O)Nc2ccccc2S(C)(=O)=O)C1=O [Compound 1175]
pest or weed control at 125 g/ha ([1]; 125 g ai/ha, postemergence, visual injury vs untreated controls after approx. 10 d, 0 = no effect, 100 = complete control, read-out: Barnyardgrass plant response rating (0 to 100 scale)): 90%
pest or weed control at 31 g/ha ([1]; Postemergence, 31 g ai/ha, visual injury after approx. 10 d, 0 to 100 scale, 0 no effect, 100 complete control, read-out: Plant response rating, Barnyardgrass): 50%
pest or weed control at 125 g/ha ([2]; 125 g ai/ha, postemergence, visual injury vs untreated controls after approx. 10 d, 0 = no effect, 100 = complete control, read-out: Galium plant response rating (0 to 100 scale)): 40%
pest or weed control at 31 g/ha ([2]; Postemergence, 31 g ai/ha, visual injury after approx. 10 d, 0 to 100 scale, 0 no effect, 100 complete control, read-out: Plant response rating, Galium): 20%
pest or weed control at 125 g/ha (Kochia (Kochia scoparia) [3]; 125 g ai/ha, postemergence, visual injury vs untreated controls after approx. 10 d, 0 = no effect, 100 = complete control, read-out: Kochia plant response rating (0 to 100 scale)): 0%
pest or weed control at 31 g/ha (Kochia (Kochia scoparia) [3]; Postemergence, 31 g ai/ha, visual injury after approx. 10 d, 0 to 100 scale, 0 no effect, 100 complete control, read-out: Plant response rating, Kochia): 0%
pest or weed control at 125 g/ha [4]: 20%
pest or weed control at 125 g/ha ([5]; 125 g ai/ha, postemergence, visual injury vs untreated controls after approx. 10 d, 0 = no effect, 100 = complete control, read-out: Blackgrass plant response rating (0 to 100 scale)): 50%
pest or weed control at 31 g/ha ([5]; Postemergence, 31 g ai/ha, visual injury after approx. 10 d, 0 to 100 scale, 0 no effect, 100 complete control, read-out: Plant response rating, Blackgrass): 0%
pest or weed control at 125 g/ha [6]: 30%
plant injury at 125 g/ha [7]: 40%
plant injury at 125 g/ha (corn (Zea mays); 125 g ai/ha, postemergence, visual injury vs untreated controls after approx. 10 d, 0 = no effect, 100 = complete control, read-out: Corn plant response rating (0 to 100 scale)): 30%
Corn plant response rating (crop injury, 0 = no effect, 100 = complete kill) at 31 g/ha (corn (Zea mays); Postemergence, 31 g ai/ha, visual injury after approx. 10 d, 0 to 100 scale, 0 no effect, 100 complete control): 0%
pest or weed control at 125 g/ha ([8]; 125 g ai/ha, postemergence, visual injury vs untreated controls after approx. 10 d, 0 = no effect, 100 = complete control, read-out: Foxtail, Giant plant response rating (0 to 100 scale)): 80%
pest or weed control at 31 g/ha ([8]; Postemergence, 31 g ai/ha, visual injury after approx. 10 d, 0 to 100 scale, 0 no effect, 100 complete control, read-out: Plant response rating, Foxtail, Giant): 50%
pest or weed control at 125 g/ha [9]: 50%
pest or weed control at 250 g/ha [10]: 65%
pest or weed control at 250 g/ha [11]: 90%
pest or weed control at 250 g/ha (rice (Oryra sativa)): 10%
pest or weed control at 250 g/ha [12]: 0%
pest or weed control at 31 g/ha ([13]; 31 g ai/ha, Preemergence): 50%
pest or weed control at 125 g/ha [13, 19]: 90%
pest or weed control at 31 g/ha (Kochia (Kochia scoparia) [14]; 31 g ai/ha, Preemergence): 20%
pest or weed control at 125 g/ha (Kochia (Kochia scoparia) [14]; [19]): 50%
pest or weed control at 31 g/ha ([15]; 31 g ai/ha, Preemergence): 0%
pest or weed control at 125 g/ha [15, 19]: 40%
pest or weed control at 31 g/ha ([16]; 31 g ai/ha, Preemergence): 0%
pest or weed control at 125 g/ha [16, 19]: 20%
pest or weed control at 31 g/ha ([17]; 31 g ai/ha, Preemergence): 70%
pest or weed control at 125 g/ha [17, 19]: 90%
pest or weed control at 31 g/ha ([18]; 31 g ai/ha, Preemergence): 0%
pest or weed control at 125 g/ha [18, 19]: 20%
